# Assay results published in patent publication US20260007681A1, “INDOLE DERIVATIVES AS ESTROGEN RECEPTOR DEGRADERS” (REGENTS OF THE UNIVERSITY OF MICHIGAN, priority 2022, published 2026).
# Molecular target: ER (Homo sapiens (Human), UniProt P03372)
# Experiment: Western blot analysis (Compounds B1-B278)
# Format: cell-based
# Conditions: ER degradation by traditional Western blot; DC50 classes
# Method in brief: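 Relative target-protein levels come from densitometry of immunoblots, normalized to GAPDH. Lysates from treated cells were prepared in RIPA buffer (pH 7.6) containing protease inhibitors, and equal protein amounts, checked by BCA, were separated on 10% gels and blotted onto PVDF.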
# Chain of ER (P03372 whole entry): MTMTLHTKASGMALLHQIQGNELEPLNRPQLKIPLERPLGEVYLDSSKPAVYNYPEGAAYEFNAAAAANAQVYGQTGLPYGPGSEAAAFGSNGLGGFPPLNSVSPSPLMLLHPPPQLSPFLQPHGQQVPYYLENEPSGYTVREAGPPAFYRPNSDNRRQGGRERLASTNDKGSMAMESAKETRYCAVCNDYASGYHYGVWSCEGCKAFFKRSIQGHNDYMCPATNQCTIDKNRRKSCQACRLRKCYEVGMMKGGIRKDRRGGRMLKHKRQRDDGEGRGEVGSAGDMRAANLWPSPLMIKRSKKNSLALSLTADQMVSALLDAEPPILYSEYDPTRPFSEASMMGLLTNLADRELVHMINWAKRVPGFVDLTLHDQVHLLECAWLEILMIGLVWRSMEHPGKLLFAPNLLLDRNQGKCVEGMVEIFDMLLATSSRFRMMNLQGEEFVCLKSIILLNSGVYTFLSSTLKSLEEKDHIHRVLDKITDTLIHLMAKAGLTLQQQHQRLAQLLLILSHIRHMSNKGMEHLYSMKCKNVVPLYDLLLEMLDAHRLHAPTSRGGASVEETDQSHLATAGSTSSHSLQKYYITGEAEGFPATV
row,Structure (SMILES),Traditional Western Degradation Potency
1,"C[C@@H]1Cc2c([nH]c3ccccc23)[C@@H](c2c(F)cc(N3CC(C(=O)N4CCC(CN5Cc6cc7c(cc6C5)C(=O)N(C5CCC(=O)NC5=O)C7=O)CC4)C3)cc2F)N1CC(F)F (stereo partly drawn) [Compound B61, 6-((1-(1-(4-((1R,3R)-2-(2,2-difluoroethyl)-3-methyl-2,3,4,9-tetrahydro-1H-pyrido[3,4-b]indol-1-yl)-3,5-difluorophenyl)azetidine-3-carbonyl)piperidin-4-yl)methyl)-2-(2,6-dioxopiperidin-3-yl)-6,7-dihydropyrrolo[3,4-f]isoindole-1,3(2H,5H)-dione]",A (“A”: <10 nM)
2,"C[C@@H]1Cc2c([nH]c3ccccc23)[C@@H](c2c(F)cc(N3CC(C(=O)N4CCC(N5Cc6cc7c(cc6C5)C(=O)N(C5CCC(=O)NC5=O)C7=O)CC4)C3)cc2F)N1CC(F)F (stereo partly drawn) [Compound B62, 6-(1-(1-(4-((1R,3R)-2-(2,2-difluoroethyl)-3-methyl-2,3,4,9-tetrahydro-1H-pyrido[3,4-b]indol-1-yl)-3,5-difluorophenyl)azetidine-3-carbonyl)piperidin-4-yl)-2-(2,6-dioxopiperidin-3-yl)-6,7-dihydropyrrolo[3,4-f]isoindole-1,3(2H,5H)-dione]",A (“A”: <10 nM)
3,"C[C@@H]1Cc2c([nH]c3ccccc23)[C@@H](c2c(F)cc(N3CCC(CN4CC(N5Cc6cc7c(cc6C5)C(=O)N(C5CCC(=O)NC5=O)C7=O)C4)CC3)cc2F)N1CC(F)F (stereo partly drawn) [Compound B63, 6-(1-((1-(4-((1R,3R)-2-(2,2-difluoroethyl)-3-methyl-2,3,4,9-tetrahydro-1H-pyrido[3,4-b]indol-1-yl)-3,5-difluorophenyl)piperidin-4-yl)methyl)azetidin-3-yl)-2-(2,6-dioxopiperidin-3-yl)-6,7-dihydropyrrolo[3,4-f]isoindole-1,3(2H,5H)-dione]",B (“B”: 10-100 nM)
4,"C[C@@H]1Cc2c([nH]c3ccccc23)[C@@H](c2c(F)cc(N3CCC(N4CCC(CN5Cc6cc7c(cc6C5)C(=O)N(C5CCC(=O)NC5=O)C7=O)CC4)C3)cc2F)N1CC(F)F (stereo partly drawn) [Compound B64, 6-((1-(1-(4-((1R,3R)-2-(2,2-difluoroethyl)-3-methyl-2,3,4,9-tetrahydro-1H-pyrido[3,4-b]indol-1-yl)-3,5-difluorophenyl)pyrrolidin-3-yl)piperidin-4-yl)methyl)-2-(2,6-dioxopiperidin-3-yl)-6,7-dihydropyrrolo[3,4-f]isoindole-1,3(2H,5H)-dione]",C (“C”: >100 nM)
5,"C[C@@H]1Cc2c([nH]c3ccccc23)[C@@H](c2c(F)cc(N3CCC(CN4CCC(CN5Cc6cc7c(cc6C5)C(=O)N(C5CCC(=O)NC5=O)C7=O)CC4)CC3)cc2F)N1CC(F)F (stereo partly drawn) [Compound B65, 6-((1-((1-(4-((1R,3R)-2-(2,2-difluoroethyl)-3-methyl-2,3,4,9-tetrahydro-1H-pyrido[3,4-b]indol-1-yl)-3,5-difluorophenyl)piperidin-4-yl)methyl)piperidin-4-yl)methyl)-2-(2,6-dioxopiperidin-3-yl)-6,7-dihydropyrrolo[3,4-f]isoindole-1,3(2H,5H)-dione]",A (“A”: <10 nM)
6,"C[C@@H]1Cc2c([nH]c3ccccc23)[C@@H](c2c(F)cc(N3CCC(CN4CCC(N5Cc6cc7c(cc6C5)C(=O)N(C5CCC(=O)NC5=O)C7=O)C4)CC3)cc2F)N1CC(F)F (stereo partly drawn) [Compound B66, 6-(1-((1-(4-((1R,3R)-2-(2,2-difluoroethyl)-3-methyl-2,3,4,9-tetrahydro-1H-pyrido[3,4-b]indol-1-yl)-3,5-difluorophenyl)piperidin-4-yl)methyl)pyrrolidin-3-yl)-2-(2,6-dioxopiperidin-3-yl)-6,7-dihydropyrrolo[3,4-f]isoindole-1,3(2H,5H)-dione]",A (“A”: <10 nM)
7,"C[C@@H]1Cc2c([nH]c3ccccc23)[C@@H](c2c(F)cc(N3CCC(CN4CCCC(N5Cc6cc7c(cc6C5)C(=O)N(C5CCC(=O)NC5=O)C7=O)CC4)CC3)cc2F)N1CC(F)F (stereo partly drawn) [Compound B67, 6-(1-((1-(4-((1R,3R)-2-(2,2-difluoroethyl)-3-methyl-2,3,4,9-tetrahydro-1H-pyrido[3,4-b]indol-1-yl)-3,5-difluorophenyl)piperidin-4-yl)methyl)azepan-4-yl)-2-(2,6-dioxopiperidin-3-yl)-6,7-dihydropyrrolo[3,4-f]isoindole-1,3(2H,5H)-dione]",A (“A”: <10 nM)
8,"C[C@@H]1Cc2c([nH]c3ccccc23)[C@@H](c2c(F)cc(N3CCC(CN4CC5(CC(N6Cc7cc8c(cc7C6)C(=O)N(C6CCC(=O)NC6=O)C8=O)C5)C4)CC3)cc2F)N1CC(F)F (stereo partly drawn) [Compound B68, 6-(2-((1-(4-((1R,3R)-2-(2,2-difluoroethyl)-3-methyl-2,3,4,9-tetrahydro-1H-pyrido[3,4-b]indol-1-yl)-3,5-difluorophenyl)piperidin-4-yl)methyl)-2-azaspiro[3.3]heptan-6-yl)-2-(2,6-dioxopiperidin-3-yl)-6,7-dihydropyrrolo[3,4-f]isoindole-1,3(2H,5H)-dione]",A (“A”: <10 nM)
9,"C[C@@H]1Cc2c([nH]c3ccccc23)[C@@H](c2c(F)cc(N3CCC(CN4CCC5(CC4)CC(N4Cc6cc7c(cc6C4)C(=O)N(C4CCC(=O)NC4=O)C7=O)C5)CC3)cc2F)N1CC(F)F (stereo partly drawn) [Compound B69, 6-(7-((1-(4-((1R,3R)-2-(2,2-difluoroethyl)-3-methyl-2,3,4,9-tetrahydro-1H-pyrido[3,4-b]indol-1-yl)-3,5-difluorophenyl)piperidin-4-yl)methyl)-7-azaspiro[3.5]nonan-2-yl)-2-(2,6-dioxopiperidin-3-yl)-6,7-dihydropyrrolo[3,4-f]isoindole-1,3(2H,5H)-dione]",B (“B”: 10-100 nM)
10,"C[C@@H]1Cc2c([nH]c3ccccc23)[C@@H](c2c(F)cc(N3CCC(CN4CCC5(CCC(N6Cc7cc8c(cc7C6)C(=O)N(C6CCC(=O)NC6=O)C8=O)C5)CC4)CC3)cc2F)N1CC(F)F (stereo partly drawn) [Compound B70, 6-(8-((1-(4-((1R,3R)-2-(2,2-difluoroethyl)-3-methyl-2,3,4,9-tetrahydro-1H-pyrido[3,4-b]indol-1-yl)-3,5-difluorophenyl)piperidin-4-yl)methyl)-8-azaspiro[4.5]decan-2-yl)-2-(2,6-dioxopiperidin-3-yl)-6,7-dihydropyrrolo[3,4-f]isoindole-1,3(2H,5H)-dione]",B (“B”: 10-100 nM)
11,"C[C@@H]1Cc2c([nH]c3ccccc23)[C@@H](c2c(F)cc(N3CC(CC(=O)N4CC(N5Cc6cc7c(cc6C5)C(=O)N(C5CCC(=O)NC5=O)C7)C4)C3)cc2F)N1CC(F)F (stereo partly drawn) [Compound B71, 3-(6-(1-(2-(1-(4-((1R,3R)-2-(2,2-difluoroethyl)-3-methyl-2,3,4,9-tetrahydro-1H-pyrido[3,4-b]indol-1-yl)-3,5-difluorophenyl)azetidin-3-yl)acetyl)azetidin-3-yl)-1-oxo-3,5,6,7-tetrahydropyrrolo[3,4-f]isoindol-2(1H)-yl)piperidine-2,6-dione]",B (“B”: 10-100 nM)
12,"C[C@@H]1Cc2c([nH]c3ccccc23)[C@@H](c2c(F)cc(N3CCC4(CCN(C(=O)CN5Cc6cc7c(cc6C5)C(=O)N(C5CCC(=O)NC5=O)C7=O)CC4)C3)cc2F)N1CC(F)F (stereo partly drawn) [Compound B72, 6-(2-(2-(4-((1R,3R)-2-(2,2-difluoroethyl)-3-methyl-2,3,4,9-tetrahydro-1H-pyrido[3,4-b]indol-1-yl)-3,5-difluorophenyl)-2,8-diazaspiro[4.5]decan-8-yl)-2-oxoethyl)-2-(2,6-dioxopiperidin-3-yl)-6,7-dihydropyrrolo[3,4-f]isoindole-1,3(2H,5H)-dione]",A (“A”: <10 nM)
13,"C[C@@H]1Cc2c([nH]c3ccccc23)[C@@H](c2c(F)cc(N3CCC(CN4Cc5cc6c(cc5C4)C(=O)N(C4CCC(=O)NC4=O)C6)CC3)cc2F)N1CC(F)F (stereo partly drawn) [Compound B73, 3-(6-((1-(4-((1R,3R)-2-(2,2-difluoroethyl)-3-methyl-2,3,4,9-tetrahydro-1H-pyrido[3,4-b]indol-1-yl)-3,5-difluorophenyl)piperidin-4-yl)methyl)-1-oxo-3,5,6,7-tetrahydropyrrolo[3,4-f]isoindol-2(1H)-yl)piperidine-2,6-dione]",C (“C”: >100 nM)
14,"C[C@@H]1Cc2c([nH]c3ccccc23)[C@@H](c2c(F)cc(N3CC(F)(C(=O)N4CCC(CN5Cc6cc7c(cc6C5)C(=O)N(C5CCC(=O)NC5=O)C7=O)CC4)C3)cc2F)N1CC(F)F (stereo partly drawn) [Compound B74, 6-((1-(1-(4-((1R,3R)-2-(2,2-difluoroethyl)-3-methyl-2,3,4,9-tetrahydro-1H-pyrido[3,4-b]indol-1-yl)-3,5-difluorophenyl)-3-fluoroazetidine-3-carbonyl)piperidin-4-yl)methyl)-2-(2,6-dioxopiperidin-3-yl)-6,7-dihydropyrrolo[3,4-f]isoindole-1,3(2H,5H)-dione]",B (“B”: 10-100 nM)
15,"C[C@@H]1Cc2c([nH]c3ccccc23)[C@@H](c2c(F)cc(N3CC(F)(C(=O)N4CCC(F)(CN5Cc6cc7c(cc6C5)C(=O)N(C5CCC(=O)NC5=O)C7=O)CC4)C3)cc2F)N1CC(F)F (stereo partly drawn) [Compound B75, 6-((1-(1-(4-((1R,3R)-2-(2,2-difluoroethyl)-3-methyl-2,3,4,9-tetrahydro-1H-pyrido[3,4-b]indol-1-yl)-3,5-difluorophenyl)-3-fluoroazetidine-3-carbonyl)-4-fluoropiperidin-4-yl)methyl)-2-(2,6-dioxopiperidin-3-yl)-6,7-dihydropyrrolo[3,4-f]isoindole-1,3(2H,5H)-dione]",C (“C”: >100 nM)
